In patent publication US20210380548A1, “Fused [1,2,4]Thiadiazine Derivatives Which Act as KAT Inhibitors of the MYST Family” (CTxT Pty Limited, priority 2017, published 2021):

How the values were obtained:
[1] = target: T1, TIP60-KAT5 (Homo sapiens, UniProt Q92993); assay: Acetyltransferase biochemical assay (AlphaScreen), KAT5; conditions: Table 1 (TIP60-KAT5); 0.4 μM Acetyl coenzyme A, histone H4, 10 nM enzyme
T1 construct: encoding amino acid residues 2 to 461 (Uniprot Q92993-2) of human KAT5 isoform; made in house; host or cells: E. coli BL21 DE3
T1 sequence (Q92993 2-461 isoform Q92993-2): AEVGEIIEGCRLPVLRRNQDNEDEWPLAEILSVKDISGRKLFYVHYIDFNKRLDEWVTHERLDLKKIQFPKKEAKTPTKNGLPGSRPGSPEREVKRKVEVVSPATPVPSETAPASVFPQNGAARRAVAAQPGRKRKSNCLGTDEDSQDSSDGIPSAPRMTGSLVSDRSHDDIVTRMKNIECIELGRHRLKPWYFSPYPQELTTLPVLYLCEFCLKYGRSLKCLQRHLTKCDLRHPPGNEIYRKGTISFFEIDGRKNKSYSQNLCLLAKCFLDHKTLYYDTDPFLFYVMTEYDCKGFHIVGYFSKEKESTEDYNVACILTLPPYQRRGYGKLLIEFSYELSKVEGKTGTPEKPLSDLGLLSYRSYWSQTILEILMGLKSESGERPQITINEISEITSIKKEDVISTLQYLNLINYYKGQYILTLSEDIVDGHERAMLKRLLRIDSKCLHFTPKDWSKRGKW

[2] = target: T2, MOZ-KAT6A (Homo sapiens, UniProt Q92794, A567V); assay: Acetyltransferase biochemical assay (AlphaScreen), KAT6A; conditions: Table 2 (MOZ-KAT6A); 10 μM Acetyl coenzyme A, histone H3.1, 5 nM enzyme
T2 construct: encoding amino acid residues 507 to 778 (Uniprot Q92794-1) of human KAT6A; made in house; host or cells: E. coli BL21 DE3
T2 sequence (Q92794 507-778 A567V limits assumed): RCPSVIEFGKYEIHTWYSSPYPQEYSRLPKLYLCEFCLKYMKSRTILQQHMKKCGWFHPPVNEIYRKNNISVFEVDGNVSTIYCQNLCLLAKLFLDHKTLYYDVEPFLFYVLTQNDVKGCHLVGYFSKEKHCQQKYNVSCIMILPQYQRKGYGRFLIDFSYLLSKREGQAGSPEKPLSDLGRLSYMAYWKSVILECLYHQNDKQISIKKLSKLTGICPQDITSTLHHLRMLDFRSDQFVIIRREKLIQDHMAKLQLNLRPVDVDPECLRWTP

[3] = target: T2, MOZ-KAT6A; assay: Revised Acetyltransferase Biochemical Assay, KAT6A; conditions: Table 8 (MOZ-KAT6A), 1 μM Acetyl coenzyme A
[4] = target: T1, TIP60-KAT5; assay: Revised Acetyltransferase Biochemical Assay, KAT5; conditions: 10 nM KAT5, 1 μM AcCoA, 100 nM histone H4, 90 min
[5] = target: T3, HBO-KAT7 (Homo sapiens, UniProt O95251); assay: Acetyltransferase biochemical assay (AlphaScreen), KAT7; conditions: Table 3 (HBO-KAT7); 0.4 μM Acetyl coenzyme A, histone H3.1, 40 nM enzyme
T3 construct: encoding amino acid residues 325 to 611 (Uniprot 095251-1) of human KAT7; made in house; host or cells: E. coli BL21 DE3 RIL
T3 sequence (O95251 with tags, fused parts or gaps): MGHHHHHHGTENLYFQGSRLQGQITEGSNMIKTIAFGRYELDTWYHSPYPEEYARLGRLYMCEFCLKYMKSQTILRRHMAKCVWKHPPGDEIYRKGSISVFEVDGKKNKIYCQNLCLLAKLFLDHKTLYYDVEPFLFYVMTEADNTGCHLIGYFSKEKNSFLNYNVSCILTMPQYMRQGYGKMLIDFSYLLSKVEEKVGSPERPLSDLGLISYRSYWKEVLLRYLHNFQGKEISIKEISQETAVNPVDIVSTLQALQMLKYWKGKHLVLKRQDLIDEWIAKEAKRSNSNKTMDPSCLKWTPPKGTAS

[6] = target: T3, HBO-KAT7; assay: Revised Acetyltransferase Biochemical Assay, KAT7; conditions: Table 9 (HBO-KAT7), 1 μM Acetyl coenzyme A

IC50 [1] [µM]	IC50 [2] [µM]	IC50 [3] [µM]	IC50 [4] [µM]	IC50 [5] [µM]	IC50 [6] [µM]	SMILES
52.8	47.5	–	–	–	–	O=C(NCC(c1ccccc1)c1ncc[nH]1)C1=Nc2ccccc2S(=O)(=O)N1 (single isomer, unassigned) [Example 152]
63.5	4.42	–	–	15.7	–	O=C(NCCc1ccccc1Br)C1=Nc2ccccc2S(=O)(=O)N1 [Example 28, N-(2-Bromophenethyl)-2H-benzo[e][1,2,4]thiadiazine-3-carboxamide 1,1-dioxide]
> 125	> 125	–	–	–	–	O=C(NCCc1cccc(F)c1)C1=Nc2ccccc2S(=O)(=O)N1 [Example 61]
> 125	> 125	–	–	–	–	COc1cccc(CCNC(=O)C2=Nc3ccccc3S(=O)(=O)N2)c1 [Example 62]
> 125	> 125	–	–	–	–	O=C(NCCc1ccccc1F)C1=Nc2ccccc2S(=O)(=O)N1 [Example 63]
92.1	102	–	–	–	–	COc1ccccc1CCNC(=O)C1=Nc2ccccc2S(=O)(=O)N1 [Example 64]
85.4	53.9	–	–	–	–	O=C(NCCc1ccccc1C(F)(F)F)C1=Nc2ccccc2S(=O)(=O)N1 [Example 65]
> 125	> 125	–	–	–	–	O=C(NCCc1ccc(F)cc1)C1=Nc2ccccc2S(=O)(=O)N1 [Example 66]
> 125	> 125	–	–	–	–	Cc1ccc(CCNC(=O)C2=Nc3ccccc3S(=O)(=O)N2)cc1 [Example 67]
> 125	> 125	–	–	–	–	O=C(NCCc1ccc(Cl)cc1)C1=Nc2ccccc2S(=O)(=O)N1 [Example 69]
> 125	> 125	–	–	–	–	O=C(NCCc1cccnc1)C1=Nc2ccccc2S(=O)(=O)N1 [Example 70]
> 125	67.5	–	–	–	–	COC(CNC(=O)C1=Nc2ccccc2S(=O)(=O)N1)c1ccccc1 (stereo not drawn) [Example 74]
> 125	> 125	–	–	–	–	O=C(NCC(O)c1ccccc1)C1=Nc2ccccc2S(=O)(=O)N1 (stereo not drawn) [Example 76]
4.9	1.61	0.552	6.65	–	4.6	O=C(NCCc1ccccc1F)C1=Nc2ccc(Br)cc2S(=O)(=O)N1 [Example 81]
7.38	2.61	–	–	–	–	N#Cc1ccccc1CCNC(=O)C1=Nc2ccc(Br)cc2S(=O)(=O)N1 [Example 83]
61.2	–	–	–	34.7	–	O=C(NCC(O)c1ccc(F)cc1)C1=Nc2ccc(I)cc2S(=O)(=O)N1 (stereo not drawn) [Example 127]
> 125	> 125	–	–	–	–	O=C(NCC(C(=O)O)c1ccccc1)C1=Nc2ccccc2S(=O)(=O)N1 (stereo not drawn) [Example 154, 3-(1,1-Dioxido-2H-benzo[e][1,2,4]thiadiazine-3-carboxamido)-2-phenylpropanoic Acid]

Second part, the compound before the results:

SMILES	IC50 [1] [µM]	IC50 [2] [µM]	IC50 [3] [µM]	IC50 [4] [µM]	IC50 [5] [µM]	IC50 [6] [µM]
O=C(NCC(c1ccccc1)c1ncco1)C1=Nc2ccc(F)cc2S(=O)(=O)N1 (single isomer, unassigned) [Example 145]	18.9	3.73	0.649	7.46	–	–
O=C(NCC(c1ccccc1)c1ncco1)C1=Nc2ccc(O)cc2S(=O)(=O)N1 (single isomer, unassigned) [Example 148]	45.7	5.39	–	–	–	–
O=C(NCC(c1ccccc1)c1ncco1)C1=Nc2ccc(O)cc2S(=O)(=O)N1 (single isomer, unassigned) [Example 149]	4.88	0.102	–	–	–	–
CNC(=O)Cn1cc(-c2ccc3c(c2)S(=O)(=O)NC(C(=O)NCC(c2ccccc2)c2ncco2)=N3)cn1 (stereo not drawn) [Example 9, 7-(1-(2-(Methylamino)-2-oxoethyl)-1H-pyrazol-4-yl)-N-(2-(oxazol-2-yl)-2-phenylethyl)-2H-benzo[e][1,2,4]thiadiazine-3-carboxamide 1,1-dioxide]	12.4	0.0421	–	–	20.1	–
O=C(NCC(c1ccccc1)c1ncco1)C1=Nc2ccc(-c3cnn(CCO)c3)cc2S(=O)(=O)N1 (stereo not drawn) [Example 10, 7-(1-(2-Hydroxyethyl)-1H-pyrazol-4-yl)-N-(2-(oxazol-2-yl)-2-phenylethyl)-2H-benzo[e][1,2,4]thiadiazine-3-carboxamide 1,1-dioxide]	79.7	0.0906	–	–	–	–
Nc1ccc2c(c1)S(=O)(=O)NC(C(=O)NCC(c1ccccc1)c1ncco1)=N2 (stereo not drawn) [Example 11, 7-Amino-N-(2-(oxazol-2-yl)-2-phenylethyl)-2H-benzo[e][1,2,4]thiadiazine-3-carboxamide 1,1-dioxide]	11.8	1.81	–	–	2.53	–
O=C(NCC(c1ccccc1)c1ccccc1)C1=Nc2ccc(Br)cc2S(=O)(=O)N1 [Example 15, 7-Bromo-N-(2,2-diphenylethyl)-2H-benzo[e][1,2,4]thiadiazine-3-carboxamide 1,1-dioxide]	1.4	0.211	0.682	5.55	–	0.874
Cc1ccc2c(c1)S(=O)(=O)NC(C(=O)NCC(c1ccccc1)c1ccccc1)=N2 [Example 16, N-(2,2-Diphenylethyl)-7-methyl-2H-benzo[e][1,2,4]thiadiazine-3-carboxamide 1,1-dioxide]	23.8	1.37	–	–	–	–
O=C(NCC(c1ccccc1)c1ccccc1)C1=Nc2ccc(C3CC3)cc2S(=O)(=O)N1 [Example 17, 7-Cyclopropyl-N-(2,2-diphenylethyl)-2H-benzo[e][1,2,4]thiadiazine-3-carboxamide 1,1-dioxide]	51	3.33	–	–	–	–
O=C(NCC(c1ccccc1)c1ccccc1)C1=Nc2ccc(-c3ccn[nH]3)cc2S(=O)(=O)N1 [Example 22, N-(2,2-diphenylethyl)-7-(1H-pyrazol-5-yl)-2H-benzo[e][1,2,4]thiadiazine-3-carboxamide 1,1-dioxide]	72.4	1.98	–	–	–	–
COC(=O)c1ccc2c(c1)S(=O)(=O)NC(C(=O)NCC(c1ccccc1)c1ncco1)=N2 (stereo not drawn) [Example 23, Methyl 3-((2-(oxazol-2-yl)-2-phenylethyl)carbamoyl)-2H-benzo[e][1,2,4]thiadiazine-7-carboxylate 1,1-dioxide]	3.73	0.056	0.12	1.73	–	2.88
NC(=O)c1ccc2c(c1)S(=O)(=O)NC(C(=O)NCC(c1ccccc1)c1ncco1)=N2 (stereo not drawn) [Example 27, N^3-(2-(Oxazol-2-yl)-2-phenylethyl)-2H-benzo[e][1,2,4]thiadiazine-3,7-dicarboxamide 1,1-dioxide]	1.29	0.0195	–	–	–	–
O=C(NCC(c1ccccc1)c1ccccc1)C1=Nc2ccc(-c3cccnc3)cc2S(=O)(=O)N1 [Example 37, N-(2,2-diphenylethyl)-7-(pyridin-3-yl)-2H-benzo[e][1,2,4]thiadiazine-3-carboxamide 1,1-dioxide]	44	0.771	–	–	–	–
CNC(=O)C(CNC(=O)C1=Nc2ccccc2S(=O)(=O)N1)c1ccccc1 (stereo not drawn) [Example 45, N-(3-(methylamino)-3-oxo-2-phenylpropyl)-2H-benzo[e][1,2,4]thiadiazine-3-carboxamide 1,1-dioxide]	109	35.2	–	–	–	–
CCOC(=O)NC(CNC(=O)C1=Nc2ccccc2S(=O)(=O)N1)c1ccccc1 (stereo not drawn) [Example 49, Ethyl (2-(1,1-dioxido-2H-benzo[e][1,2,4]thiadiazine-3-carboxamido)-1-phenylethyl)carbamate]	> 125	7.67	1.68	> 125	–	3.13
O=C(NCC(OC(=O)N1CCC1)c1ccccc1)C1=Nc2ccccc2S(=O)(=O)N1 (stereo not drawn) [Example 51, 2-(1,1-dioxido-2H-benzo[e][1,2,4]thiadiazine-3-carboxamido)-1-phenylethyl azetidine-1-carboxylate]	25.3	4.82	–	–	–	–
O=C(NCC(c1ccccc1)n1ccnn1)C1=Nc2ccccc2S(=O)(=O)N1 (stereo not drawn) [Example 52, N-(2-phenyl-2-(1H-1,2,3-triazol-1-yl)ethyl)-2H-benzo[e][1,2,4]thiadiazine-3-carboxamide 1,1-dioxide]	–	36.1	–	–	–	–
Cc1coc(C(CNC(=O)C2=Nc3ccccc3S(=O)(=O)N2)c2ccccc2)n1 (stereo not drawn) [Example 53, N-(2-(4-methyloxazol-2-yl)-2-phenylethyl)-2H-benzo[e][1,2,4]thiadiazine-3-carboxamide 1,1-dioxide]	19.8	0.273	–	–	–	–
O=C(NCC(Oc1ccccc1)c1ccccc1)C1=Nc2ccccc2S(=O)(=O)N1 (stereo not drawn) [Example 77]	87	35.5	–	–	–	–
O=C(NCC(c1ccccc1)c1cc2ccccc2[nH]1)C1=Nc2ccc(Br)cc2S(=O)(=O)N1 (stereo not drawn) [Example 85]	5.97	8.1	–	–	–	–
O=C(NCC(O)c1cccc(C(F)(F)F)c1)C1=Nc2ccc(I)cc2S(=O)(=O)N1 (stereo not drawn) [Example 128]	> 125	–	–	–	> 125	–
CCNC(=O)C(CNC(=O)C1=Nc2ccccc2S(=O)(=O)N1)c1ccccc1 (stereo not drawn) [Example 131]	> 125	62.3	–	–	–	–
O=C(NCC(C(=O)N1CCCCC1)c1ccccc1)C1=Nc2ccccc2S(=O)(=O)N1 (stereo not drawn) [Example 133]	> 125	> 125	–	–	–	–
